# Measurements from paper PMC10303363, “Synthesis and Preclinical Evaluation of Novel ^68Ga-Labeled (R)-Pyrrolidin-2-yl-boronic Acid-Based PET Tracers for Fibroblast Activation Protein-Targeted Cancer Imaging” (Pharmaceuticals, 2023).
# Values joined by “and” are separate entries in the source; they are usually repeats but may differ in a detail not shown here. Identical values can stand only once.
# What was measured:
# FAP [1] = settings: cited from earlier work
# DPPs = settings: cited from earlier work
# PREP = settings: cited from earlier work
# FAP [2] = test: FAP inhibition reported by Jansen et al. (literature); assay type: biochemical; settings: from literature IC50 values
# bone and muscle = test system: bone and muscle; set-up: method as in PMID 30850501, PMID 32332144, PMID 33721173, PMID 23712432, PMID 34620730; settings: mice; cited from earlier work
# [3] = test system: HEK293T:hFAP tumor-bearing mice; test: Ex vivo biodistribution study; assay type: in vivo; settings: 1 h pi; for Adrenal Glands uptake / Blood uptake / Bone uptake / Brain uptake / Fat uptake / Heart uptake / Kidneys uptake / Large Intestines uptake / Liver uptake / Lungs uptake / Muscle uptake / Pancreas uptake / Small Intestine uptake / Spleen uptake / Stomach uptake / Testes uptake / Thyroid uptake / Tumor uptake / Tumor/Blood uptake ratio / Tumor/Bone uptake ratio / Tumor/Kidney uptake ratio / Tumor/Muscle uptake ratio: HEK293T:hFAP tumor-bearing male NRG mice, unblocked, n = 4
# Method: (§1) Imaging and biodistribution studies were performed using immunodeficient male NRG (NOD.Cg-Rag1tm1Mom Il2rgtm1Wjl/SzJ) mice following previously reported procedures. All experiments were conducted according to the guidelines established by the Canadian Council on Animal Care and approved by Animal Ethics Committee of the University of British Columbia. The mice were subcutaneously inoculated with 7.5 × 10^6 HEK293T:hFAP cells in the left dorsal flank. When the tumors grew to 6–8 mm in diameter, the mice were used for PET/CT imaging and biodistribution studies.
# For the biodistribution studies, the mice were injected with ~1–2 MBq of the ^68Ga-labeled tracer, using the exact procedures as described above. At 1 h pi, the mice were euthanized by CO2 inhalation. Blood was withdrawn by a cardiac puncture, and the organs/tissues of interest were collected, weighed and counted using a Perkin Elmer (Waltham, MA, USA) Wizard2 2480 automatic gamma counter. The uptake values in percent of injected dose per gram of tissues (%ID/g) for the different tracers were calculated.
# (§2) For blocking studies, HEK293T:hFAP tumor-bearing mice were co-injected [^68Ga]Ga-SB04028 with an excess of FAPI-04 (0.5 mg/mouse) as a competitor. Imaging and biodistribution studies were performed at 1 h pi similar to the unblocked mice.
# [4] = test system: HEK293T:hFAP tumor xenograft; test: PET/CT imaging; assay type: in vivo, mice; settings: HEK293T:hFAP tumor xenograft, 1 h pi, unblocked
# Method: as §1
# The PET/CT imaging experiments were carried out using a Siemens Inveon micro PET/CT scanner (Knoxville, TN, USA). Tumor-bearing mice were injected with ~4 to 6 MBq of ^68Ga-labeled tracer through a lateral caudal tail vein under 2.5% isoflurane in oxygen anesthesia, followed by recovery and free roaming in their cage during the uptake period. A 10 min localization CT scan was acquired using 3 overlapping positions to cover the entire mouse. The CT scan was used for the attenuation and scatter correction, and anatomical localization. A list mode acquisition was then performed for 15 min at 1 h pi with the mouse under isoflurane sedation. The images were reconstructed using 3D OSEM/MAP iterative methods.
# as §2
# [5] = In vivo stability study (radio-HPLC of plasma and urine); set-up: species or system mice; settings: 15 min pi
# Method: In vivo stability studies were performed using healthy (non-tumor-bearing) male NRG mice following previously reported procedures. Briefly, [^68Ga]Ga-SB02055 (6.32 ± 0.16 MBq) and [^68Ga]Ga-SB04028 (9.90 ± 0.26 MBq) were injected via the lateral caudal vein into the mice (n = 3). At 15 min pi, the mice were sedated and euthanized, and urine and blood were collected. The blood was processed to obtain plasma by adding 0.5 mL of acetonitrile to 0.5–0.8 mL of whole blood, then vortexing and centrifuging the resulting mixture on a benchtop mini-centrifuge (Fisherbrand™ Mini-Centrifuge 100–240 V, 50/60 Hz Universal Plug) for 20 min. The supernatant was collected and filtered to give the blood plasma. The plasma and urine samples were analyzed via radio-HPLC by using the same conditions as those used for quality control of these ^68Ga-labeled radioligands.
Adrenal Glands uptake [3],Blood uptake [3],Bone uptake [3],Brain uptake [3],Fat uptake [3],Heart uptake [3],Kidneys uptake [3],Large Intestines uptake [3],Liver uptake [3],Lungs uptake [3],Muscle uptake [3],Pancreas uptake [3],Small Intestine uptake [3],Spleen uptake [3],Stomach uptake [3],Testes uptake [3],Thyroid uptake [3],Tumor uptake [3],Tumor/Blood uptake ratio [3],Structure (SMILES),IC50 (FAP [1]),also measured
,,,,,,,,,,,,,,,,,,,O=C(NCC(=O)N1CCC[C@H]1B(O)O)c1ccnc2ccccc12 [N-(4-quinolinoyl)-Gly-boroPro],3.7 ± 0.2 nM,fold higher FAP binding affinity than N-(4-quinolinoyl)-Gly-(2-cyanopyrrolidine) (FAP [2]): 2.8 fold; selectivity over DPPs (DPPs): > 10^3; selectivity over PREP (PREP): ~ 3 fold
,,,,,,,,,,,,,,,,,,,N#C[C@@H]1CC(F)(F)CN1C(=O)CNC(=O)c1ccnc2ccc(OCCCN3CCN(C(=O)CN4CCN(CC(=O)[O-])CCN(CC(=O)[O-])CCN(CC(=O)[O-])CC4)CC3)cc12.[68Ga+3] [[^68Ga]Ga-FAPI-04],,uptake in the bone and muscle (bone and muscle): high uptake
0.56 ± 0.89 %ID/g,0.60 ± 0.04 %ID/g,0.45 ± 0.12 %ID/g,0.02 ± 0.00 %ID/g,0.06 ± 0.02 %ID/g,0.17 ± 0.01 %ID/g,2.29 ± 0.43 %ID/g,0.11 ± 0.03 %ID/g,1.49 ± 0.11 %ID/g,0.42 ± 0.04 %ID/g,0.12 ± 0.02 %ID/g,0.13 ± 0.02 %ID/g,0.64 ± 0.10 %ID/g,0.21 ± 0.08 %ID/g,0.11 ± 0.05 %ID/g,0.16 ± 0.03 %ID/g,0.26 ± 0.02 %ID/g,6.38 ± 0.45 %ID/g,10.7 ± 1.29,"CC(NC(=O)c1ccc(CNC(=O)CN2CCN(CC(=O)[O-])CCN(CC(=O)[O-])CCN(CC(=O)[O-])CC2)cc1)C(=O)N1CCCC1B(O)O.[68Ga+3] (stereo not drawn) [[^68Ga]Ga-PNT6555, reference compound]",,Tumor/Bone uptake ratio [3]: 14.9 ± 3.34; Tumor/Kidney uptake ratio [3]: 2.87 ± 0.59; Tumor/Muscle uptake ratio [3]: 52.6 ± 5.86
1.17 ± 1.13 %ID/g,3.13 ± 1.25 %ID/g,1.14 ± 0.37 %ID/g,0.05 ± 0.02 %ID/g,0.16 ± 0.05 %ID/g,1.23 ± 0.48 %ID/g,1.74 ± 0.95 %ID/g,0.56 ± 0.24 %ID/g,0.94 ± 0.27 %ID/g,1.20 ± 0.35 %ID/g,0.63 ± 0.20 %ID/g,2.07 ± 0.83 %ID/g,0.80 ± 0.29 %ID/g,0.85 ± 0.27 %ID/g,0.53 ± 0.36 %ID/g,0.26 ± 0.10 %ID/g,1.49 ± 0.47 %ID/g,1.08 ± 0.37 %ID/g,0.35 ± 0.03,O=C([O-])CN1CCN(CC(=O)[O-])CCN(CC(=O)N2CCN(CCCOc3ccc4nccc(C(=O)NCC(=O)N5CCCC5B(O)O)c4c3)CC2)CCN(CC(=O)[O-])CC1.[68Ga+3] (stereo not drawn) [[^68Ga]Ga-SB02055],,"Tumor/Bone uptake ratio [3]: 0.95 ± 0.06; Tumor/Kidney uptake ratio [3]: 0.67 ± 0.15; Tumor/Muscle uptake ratio [3]: 1.72 ± 0.19; fold lower tumor uptake than [68Ga]Ga-PNT6555 ([3]; HEK293T:hFAP tumor-bearing mice): ~ 6 fold; tumor on PET/CT image [4]: negligible; fraction of tracer remaining intact in plasma ([5]; male NRG mice, n = 3): no intact; fraction of tracer remaining intact in urine ([5]; male NRG mice, n = 3): 93.5 ± 0.91% and > 93%; plasma fraction of unidentified highly hydrophilic 68Ga-labeled species ([5]; mouse plasma): > 99%"
